# Measurements: US20210253651A1, “METHOD FOR PRODUCING ORGANIC COMPOUND-ENCAPSULATING FERRITIN” (Ajinomoto Co., Inc., priority 2018, published 2021)
# What was measured:
# [1] = molecular target: T1, FTH ferritin (Homo sapiens, UniProt P02794); assay: one-step process incorporation of small molecule agents into FTH ferritin; format: physicochemical; conditions: for Incorporation efficiency (wt %) / Number of agent incorporated: 60 min
# T1 construct: made in house; host or cells: Escherichia coli BL21 (DE3), plasmid pET20-FTH
# Protocol: All of the reactions were performed in 0.1 mL volume. […] The absorbances were measured using spectrophotometer (DU-800, Beckman Coulter Inc.) for these solutions, and the concentration of contained protein was determined using the protein assay CBB solution (Nacalai Tesque, Inc.) as well as bovine albumin as a standard. Absorbances at 280 nm and 480 nm were measured for Rhodamine B and Congo Red. […] Then, after the absorbances were calibrated based on the absorbances that were derived from the proteins and presumed by the amount of contained protein quantified using the protein assay CBB solution, the concentrations of small molecule agents were determined based on the calibration curves obtained by the absorbances of the molecules. […] As a result, the one-step process enabled incorporating also the small molecule agents with different physical properties such as molecular weight and pKa simply and easily.
# [2] = molecular target: T1, FTH ferritin; assay: ratio of amounts incorporated, one-step vs disassembly-reassembly process; format: physicochemical
# Protocol: As a control, some of small molecule agents listed in Table 1 was incorporated into ferritin also at the disassembly-reassembly process. […] Then, 10 μL of 1M Tris-HCl buffer (pH 9.0) was added for neutralization, and the resulting solution was left to stand for 15 minutes at room temperature. After the standing, 0.5 mL of water was added. After the resulting solution was centrifuged (at 15,000 rpm for one minute), the supernatant was injected into the desalting column PD-10 (Sephadex G-25 filled product, GE Healthcare Inc.) equilibrated with 10 mM Tris-HCl buffer (pH 8) to separate the protein from a reagent that was not encapsulated. […]
# The absorbances were measured using spectrophotometer (DU-800, Beckman Coulter Inc.) for these solutions, and the concentration of contained protein was determined using the protein assay CBB solution (Nacalai Tesque, Inc.) as well as bovine albumin as a standard. Absorbances at 280 nm and 480 nm were measured for Rhodamine B and Congo Red. […] Then, after the absorbances were calibrated based on the absorbances that were derived from the proteins and presumed by the amount of contained protein quantified using the protein assay CBB solution, the concentrations of small molecule agents were determined based on the calibration curves obtained by the absorbances of the molecules. […]
# T1 sequence (P02794 whole entry): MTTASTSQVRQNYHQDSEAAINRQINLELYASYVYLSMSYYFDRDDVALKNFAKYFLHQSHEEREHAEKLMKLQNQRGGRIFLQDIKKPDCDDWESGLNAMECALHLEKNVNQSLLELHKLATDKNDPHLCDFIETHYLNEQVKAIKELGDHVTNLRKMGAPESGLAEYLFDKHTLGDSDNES
compound,measurement,setting,value
CN(C)C(=N)NC(=N)N [Metformin],Incorporation efficiency (wt %),"[1]; pH 4, 40° C.",0.0 wt %
same,Number of agent incorporated,"[1]; pH 4, 40° C.",0.0
same,Incorporation efficiency (wt %),"[1]; pH 6, 40° C.",0.0 wt %
same,Number of agent incorporated,"[1]; pH 6, 40° C.",0.2
same,Incorporation efficiency (wt %),"[1]; pH 8, 20° C.",1.9 wt %
same,Number of agent incorporated,"[1]; pH 8, 20° C.",78.0
same,Incorporation efficiency (wt %),"[1]; pH 8, 40° C.",0.1 wt %
same,Number of agent incorporated,"[1]; pH 8, 40° C.",2.9
same,Incorporation efficiency (wt %),"[1]; pH 8, 60° C.",1.3 wt %
same,Number of agent incorporated,"[1]; pH 8, 60° C.",53.5
same,Incorporation efficiency (wt %),"[1]; pH 10, 40° C.",0.0 wt %
same,Number of agent incorporated,"[1]; pH 10, 40° C.",1.8
same,Optimal pH in reaction,[1]; pH of buffer giving the largest amount of incorporation within ferritin,8
same,ratio of amount incorporated at the one-step process to that at the disassembly-reassembly process,[2],2.5 fold
